Measurements: PubChem BioAssay (NCI)
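Results reflect a 48-hour exposure of cells in 96-well plates to compound at five concentrations. Here, GI50 denotes the concentration required for 50% inhibition of growth. Definition used: TGI = concentration required for complete inhibition of growth.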

Experiments:
Assay in all cases: inhibition of tumour cell growth, NCI panel, 48 h
HT29 colon = test system: HT29 colon
SK-MEL-2 melanoma = test system: SK-MEL-2 melanoma
MCF7 breast = test system: MCF7 breast
NCI-H226 lung = test system: NCI-H226 lung
HCT-15 colon = test system: HCT-15 colon
SNB-19 CNS = test system: SNB-19 CNS
HOP-92 NSCLC = test system: HOP-92 NSCLC
U251 CNS = test system: U251 CNS
OVCAR-3 ovarian = test system: OVCAR-3 ovarian
MDA-MB-435 = test system: MDA-MB-435
M14 melanoma = test system: M14 melanoma
NCI-H522 lung = test system: NCI-H522 lung
UO-31 renal = test system: UO-31 renal
OVCAR-8 ovarian = test system: OVCAR-8 ovarian
OVCAR-5 ovarian = test system: OVCAR-5 ovarian
NCI/ADR-RES ovarian = test system: NCI/ADR-RES ovarian
ACHN renal = test system: ACHN renal
786-0 renal = test system: 786-0 renal
SN12C renal = test system: SN12C renal
DU-145 prostate = test system: DU-145 prostate
K-562 leukemia = test system: K-562 leukemia
A549 NSCLC = test system: A549 NSCLC
SW-620 colon = test system: SW-620 colon
A498 renal = test system: A498 renal
SK-MEL-28 melanoma = test system: SK-MEL-28 melanoma
HCC-2998 colon = test system: HCC-2998 colon
TK-10 renal = test system: TK-10 renal
HL-60(TB) leukemia = test system: HL-60(TB) leukemia
SF-539 CNS = test system: SF-539 CNS

## CCn1cc(C2NC(=O)c3cc(F)ccc3N2)c2cccc(Cl)c21 (stereo not drawn)
HT29 colon
  GI50: 0.276 µM
  TGI: > 100 µM
SK-MEL-2 melanoma
  GI50: 0.887 µM
  TGI: > 100 µM
MCF7 breast
  GI50: 0.0913 µM
  TGI: > 100 µM
NCI-H226 lung
  GI50: 0.664 µM
  TGI: 9.63 µM
HCT-15 colon
  GI50: 0.0968 µM
  TGI: > 100 µM
SNB-19 CNS
  GI50: 0.382 µM
  TGI: > 100 µM
HOP-92 NSCLC
  GI50: > 24.4 µM
  TGI: > 100 µM
U251 CNS
  GI50: 0.33 µM
  TGI: > 100 µM
OVCAR-3 ovarian
  GI50: 0.1 µM
  TGI: 0.596 µM
MDA-MB-435
  GI50: 0.0367 µM
  TGI: 0.142 µM
M14 melanoma
  GI50: 0.138 µM
  TGI: > 100 µM
NCI-H522 lung
  GI50: 0.135 µM
  TGI: > 32.1 µM
UO-31 renal
  GI50: 2.88 µM
  TGI: > 100 µM
OVCAR-8 ovarian
  GI50: 0.408 µM
  TGI: > 100 µM
OVCAR-5 ovarian
  GI50: 0.503 µM
  TGI: > 100 µM
NCI/ADR-RES ovarian
  GI50: 0.081 µM
  TGI: 0.75 µM
ACHN renal
  GI50: 0.606 µM
  TGI: > 100 µM
786-0 renal
  GI50: 0.618 µM
  TGI: > 50.6 µM
SN12C renal
  GI50: 0.706 µM
  TGI: > 100 µM
DU-145 prostate
  GI50: 0.379 µM
  TGI: > 100 µM
K-562 leukemia
  GI50: 0.0414 µM
  TGI: > 100 µM
A549 NSCLC
  GI50: 0.364 µM
  TGI: > 100 µM
SW-620 colon
  GI50: 0.193 µM
  TGI: > 100 µM
A498 renal
  GI50: 0.0879 µM
  TGI: 0.402 µM
SK-MEL-28 melanoma
  GI50: 0.847 µM
  TGI: > 100 µM
HCC-2998 colon
  GI50: 0.348 µM
  TGI: > 25.5 µM
TK-10 renal
  GI50: > 100 µM
  TGI: > 100 µM
HL-60(TB) leukemia
  GI50: 0.121 µM
  TGI: 0.731 µM
SF-539 CNS
  GI50: 0.177 µM
  TGI: 0.683 µM
